The results in this text go back to a melting point compilation (Tetko et al.; mined from patent text by program, amines drawn as free bases though some values may be those of a salt).

Molecules are shown by their SMILES. A value given as a limit tells only on which side of the number the result lay.

What is called melting point is the temperature of the solid-liquid transition. `O=C(NC(Cc1ccc(OCc2ccccc2)cc1)C(=O)O)c1cn2cc(-c3ccncc3)ccc2n1` (stereo not given) yielded a melting point of 268 °C. For `COC(=O)n1cc2c(c1)C(OC(C)=O)N=C(c1ccccc1Cl)c1cc(Cl)ccc1-2` (stereo not given) the value was 175 to 177 °C; for `CCOC(=O)c1c(C)nn(-c2ccc(F)cc2)c1N`, 129 to 131 °C; for `COc1cc2c(CCN3CCN(c4cccc(Cl)c4C)CC3)nn(Cc3c[nH]cn3)c2cc1OC`, 143 to 144 °C. Turning to `CC(C)(C)c1cc(CCc2ccccc2NC(=O)NCCCC2CCCCC2)cc(C(C)(C)C)c1O`, the melting point turned out to be 166 °C. Consider `CC(C)c1c(Br)c(Br)c(-c2ccc(F)cc2)n1CC[C@H]1C[C@H](O)CC(=O)O1` (relative stereo), for which the melting point came out at 143 °C. The molecule `CS(=O)(=O)c1ccc(-c2cnn(-c3ccc(F)c(Cl)c3)c(=O)c2C2CCCCC2)cc1` came in with a melting point of 180 to 181 °C. On to `CN(C)c1nc(=O)c2cccnc2n1Cc1ccc(F)cc1`, for which the melting point is 167 to 170 °C. `CC1(C)CCC2=C(C1=O)C(c1ccc(F)c(Br)c1)C1=C(CCS1)N2` (stereo not given) displayed a melting point above 270 °C. Molecule `CCC(C)C(NC(=O)N1CCCCCC1)C(=O)NC(Cc1ccc(OCc2ccccc2)cc1)C(=O)OC(C)(C)C` (stereo not given) registered a melting point of 53 to 57 °C. With `Cc1oc2cc(O)cc(O)c2c(=O)c1-c1ccc(F)cc1` the figure was 222 to 223 °C; with `COC(=O)CC[C@H](NC(=O)c1ccc(CCn2cnc3nc(NC(=O)C(C)(C)C)cc-3c2O)cc1)C(=O)OC`, 247 °C; with `CC(=O)OC1CCC2(C)C(=CCC3C2CCC2(C)C(n4ccnc4)=C(C=O)CC32)C1` (stereo not given), 218 to 220 °C. On to `Cc1nccnc1OCC1COC(C)(C)O1` (stereo not given), for which the melting point fell in the range of 77 to 78 °C. As for `N#Cc1c(N2CCc3ccccc3CC2)nc(N)n(N)c1=O`, the melting point is above 200 °C. `Cc1cccc2c1C(=O)N1CC[C@H]1c1c(C(=O)OC3CCCCC3)ncn1-2` had a melting point of 199 to 200 °C. As to `CC(C)S(=O)(=O)c1cnc2c(c1)nc(CC(C)(C)C)n2CCN(C)C`, the melting point was determined as 119 °C. Molecule `COC(=O)NNc1ccccc1OCCSC` yielded a melting point of 92 to 94 °C. With `N#CC(CCSC(F)(F)F)S(=O)CCC(F)(F)C(F)(F)F` (stereo not given) the figure was 41 to 43 °C.

`CCN(C)C(=O)c1cc(-c2ccccc2)c2sccc2c1` yielded a melting point of 93 °C.

Turning to `COc1ccc2c(c1)OCC1CN(C(=O)c3cccnc3)N=C21` (stereo not given), the melting point lay within 145 to 147 °C. In turn, `O=C(O)c1cn2c3c(cccc3c1=O)CCC2` gave a melting point of 256 to 258 °C. For `COc1ccccc1C(c1ccnc2ccccc12)C(C#N)(Cc1cccnc1)C(=O)OC(C)(C)C` (stereo not given) the value was 225 to 228 °C. Molecule `CCOC(=N)C1(O)CCc2ccccc21` (stereo not given) yielded a melting point below 20 °C.

In the case of `O=c1ncc(Cl)cn1CSc1ccc(F)cc1`, the melting point was 179 °C.

For `Brc1ccc(Cc2ccc(Br)cc2)cc1`, the melting point fell in the range of 62 to 62.5 °C.

`NN=C1CCc2ccccc21`: the melting point was 84 to 86 °C.

`CCN1CCC2(CC1)COc1cc3c(cc12)N(C(=O)c1ccc(-c2ccc(C(=O)NN)cc2C)cc1)CC3` had a melting point of 222 to 225 °C. With `CCC(C)(N=NC(C)(CC)NC(=O)Nc1ccccc1)NC(=O)Nc1ccccc1` (stereo not given) the figure was 118 to 120 °C; with `CCC(=NO)C(C)(C)NCC(C)(C)CN`, 118 to 120 °C; with `O=C1CCC(c2ccc(N=C3NCCN3)cc2)=NN1`, 235 to 236 °C. With `CCOCCNCc1ccc(C(=O)Nc2nc(-c3ccccc3)c(-c3ccc(=O)n(C(C)C)n3)s2)cc1` the figure was 153 to 154 °C; with `COC(=O)c1ncccc1NC(=O)C(C)CS` (stereo not given), 55 to 56 °C; with `O=C(c1ccc(F)cc1)c1cc(Cl)nnc1Cl`, 71.1 to 72.6 °C. For `CCNC(=O)NS(=O)(=O)c1ccccc1-c1ccc(Cn2c(CC)nc3c(C)ccnc32)cc1` the value was 240 to 245 °C; for `CCOC(=O)C1(C(=O)OCC)CCC2(c3cc(OC)c(OC)cc3CCN2C(=O)CCN(C)C)C(C2c3cc(OC)c(OC)cc3CCN2C(C)=O)C1` (stereo not given), 154 to 156 °C. Turning to `O=C1CCC(c2ccc3nc(-c4ccncc4)[nH]c3c2)=NN1`, the melting point is above 320 °C. In turn, `SCC1=NC2CCCCC2N1` (stereo not given) came in with a melting point of 125 to 129 °C. Turning to `CCOC(=O)C(NC(=O)CI)C(=O)OCC`, the melting point fell in the range of 95 to 97 °C.

`Cc1ccccc1CNCCc1ccc(NC(=N)c2cccs2)cc1` showed a melting point of 105 to 106 °C. In the case of `O=C1CN(N=Cc2ncc(-c3ccc([N+](=O)[O-])cc3)o2)C(=O)N1`, the melting point lay within 314 to 316 °C. With `C#CCNC(=O)c1ccc2ccccc2c1` the figure was 163 to 165 °C; with `COc1cc(C(=O)O)ccc1Cc1c(Cl)n(C)c2ccc(CC3CCN(C)C3=O)cc12` (stereo not given), 204 to 205 °C. The molecule `O=[N+]([O-])c1c(-c2ccccc2)nn(CCCn2nc(-c3ccccc3)c([N+](=O)[O-])c2NCc2ccccc2)c1NCc1ccccc1` registered a melting point of 142 to 144 °C. Regarding `CCCc1c(Cc2ccc(-c3ccccc3C#N)cc2)c(O)nc2ccnn12`, the melting point is 236 °C.

`COc1cccc(C(=O)O)c1OCc1nc(-c2ccco2)oc1C` gave a melting point of 198 to 199 °C. `CCCOc1ccccc1-c1nc2c(CCC)nn(C)c2c(=O)[nH]1`: the melting point was in the range of 115 to 116 °C. In the case of `CNC(=O)Oc1ccc2oc3ccccc3c2c1`, the melting point lay in the range of 155 to 156 °C. For `CC(CNc1ccc(C(=O)O)cc1)Oc1ccc(F)cc1` (stereo not given), the melting point was in the range of 171 to 172 °C. Regarding `Cc1ccc(-c2csc(-c3ccc4c(c3)C(C)(C)CCC4(C)C)c2)cc1`, the melting point was 135 to 136 °C. In turn, `Cc1ccc(C(=O)NCc2ccccc2)cc1-c1nc(NCCN(C)C(=O)OC(C)(C)C)nc2c1CNC(=O)N2c1c(F)cccc1F` displayed a melting point of 160 to 163 °C. In the case of `O=C(NC(=O)N(Sc1ccccc1[N+](=O)[O-])c1ccc(Cl)cc1)c1c(F)cccc1F`, the melting point lay in the range of 176 to 178 °C. As to `O=c1c(Br)c(OCc2ccc(F)c(F)c2F)ccn1Cc1cccc(F)c1`, the melting point was in the range of 176 to 178 °C. With `CNC(=O)c1ccc(F)c2c1CC(N(CCCCc1c[nH]c3ccc(F)cc13)C1CCC1)CO2` (stereo not given) the figure was 123 °C; with `COc1ccc2c(c1)cc(-c1nc(C)no1)n2-c1ccc(CNC(=O)C2(NC(=O)OC(C)(C)C)CC2)cc1`, 212 to 214 °C; with `COc1ccc(-c2nc(CSCCO)nc3cc(OC)c(OC)cc23)cc1OC`, 154 to 155 °C. With `COc1nc(Cl)ccc1C(=O)O` the figure was 210 to 215 °C; with `Cc1c(-c2ccc(Cl)nc2)sc2nc(N)[nH]c(=O)c12`, 230 to 250 °C; with `N#CCC(O)(c1ccc(Br)cc1)c1ccc(-c2ccc(Br)cc2)cc1` (stereo not given), 154 °C. Consider `O=c1[nH]c2ccccc2n2ccnc12`, for which the melting point was above 300 °C. With `O=c1n(-c2ccccc2)nc2c3ccccc3nc(Cl)n12` the figure was 167 to 168 °C; with `O=C(CC(=O)C(F)F)c1ccc(N2CCOCC2)cc1`, 102 to 103 °C.

`COC(=O)[C@H]1CC[C@H](n2ccn(-c3ccc(OCc4ccccc4)cc3)c2=O)CC1`: the melting point was 183 to 185 °C. In turn, `CNC(=O)N(OC)c1ccc(Oc2ccc3sncc3c2)c(C(F)(F)F)c1` yielded a melting point of 197 °C.

`c1ccc(COc2ccc3c(c2)OC[C@@H](c2ccccc2)[C@H]3c2ccc(OCCCCCCN3CCOCC3)cc2)cc1` (racemic): the melting point is 85.7 to 87.5 °C. For `O=C(NCCCc1ccncc1)N(CCC12CC3CC(CC(C3)C1)C2)CC1CCCC1`, the melting point fell in the range of 155 to 158 °C. `O=C(O)COc1c(-c2cccc(Cl)c2)cc(C(=O)NCCCCc2ccccc2)cc1-c1cccc(C(F)(F)F)c1` had a melting point of 187 to 190 °C. As to `Nc1ccc(S(=O)(=O)Nc2nc(-c3cccc([N+](=O)[O-])c3)cs2)cc1`, the melting point is 191 to 193 °C. `Cc1nc(C(O)C2CCc3c(C)c4ccccc4n3C2=O)c[nH]1` (stereo not given) displayed a melting point of 210 to 211 °C. The molecule `Cc1cccc2c1nc(-c1c(F)cccc1F)n2Cc1c(Cl)cccc1Cl` had a melting point of 202 to 203 °C. Molecule `Cc1nc(-c2ccc([N+](=O)[O-])cc2)c(-c2ccc([N+](=O)[O-])cc2)[nH]1` had a melting point of 230 to 232 °C.

For `Cc1cccc(-c2sc(N)nc2-c2ccnc(-c3ccc(CN4CCCC4)cc3)c2)n1`, the melting point worked out at 200 °C. `CC(=O)OCc1ccc(S(=O)(=O)c2ccc(C)nc2Nc2c(C)cc(C)cc2C)cc1` yielded a melting point of 132 to 134 °C. Take `CCOC(=O)c1ncc2[nH]c3ccc(C4COC(O)C4)cc3c2c1C` (stereo not given): the melting point was in the range of 177 to 180 °C. For the molecule `C=CC(=O)OCC=C(C)CCC=C(C)CCC=C(C)CCC=C(C)CCC=C(C)CCC=C(C)CCC=C(C)CCC=C(C)CCC=C(C)CCC=C(C)C`, the melting point fell in the range of 32 to 32.8 °C.

Regarding `CCCCc1oc2ccccc2c1C(=O)Nc1ccc2cc(OCc3nn[nH]n3)ccc2c1`, the melting point lay in the range of 194 to 198 °C. With `CC(C)C(=O)Nc1c(OCc2ccccc2)cc(Br)cc1[N+](=O)[O-]` the figure was 197 to 198 °C; with `COc1ccc(OC)c2c1CC(O)CC2O` (stereo not given), 126 °C; with `C=CCN1CC(C)N(C(c2cccnc2)c2cccc(O)c2)CC1C` (stereo not given), 115 to 118 °C. `O=C1C=C(O)CC(c2ccccc2)O1` (stereo not given) displayed a melting point of 145 to 146 °C. Molecule `Cc1cc2c(s1)N(C(C)C)c1ccccc1N=C2N1CCN(C)CC1` returned a melting point of 120 to 121 °C. Consider `CC(=O)Nc1ccc2c(c1)cc(C(=O)O)n2Cc1ccc(Cl)c(Cl)c1`, for which the melting point lay within 245 to 246 °C. With `CCOC1CC2(C)C(CCC3C4CC5OC5C4(C)CC(N(C)C)C32)CC1O` (stereo not given) the figure was 149 to 151 °C. Regarding `Cc1cc(OCC(F)(F)F)c(NC(=O)CN2CCN(CCO)CC2)c(OCC(F)(F)F)n1`, the melting point fell in the range of 117 to 118 °C. `CCOC(=O)/C=C/C=C/c1cccc(-c2c(CC(=O)Nc3ccc(F)cc3C(F)(F)F)c(=O)oc3cc(Cl)c(C)cc23)c1` displayed a melting point of 216 to 218 °C.
